Active and inactive are the calls of the source. No cut-off for these calls is given here.
Assays:
3T3-L1 [1] = assay: Stimulation of lipolysis in mouse 3T3L1 cells at 10 uM after 48 hrs by glycerol release assay; format: functional, cell-based
3T3-L1 [2] = assay: Reduction of […] protein level in mouse 3T3L1 cells at 10 uM after 24 to 48 hrs by immunoblotting; format: functional, cell-based
3T3-L1 [3] = assay: Reduction of lipid content in mature mouse 3T3L1 cells after 7 days by Oil Red O staining method; format: functional, cell-based
3T3-L1 [4] = assay: Inhibition of mouse 3T3L1 cell differentiation assessed as reduction in EBPalpha protein level after 8 days by immunoblotting; format: functional, cell-based
3T3-L1 [5] = assay: Reduction of HSL protein level in mouse 3T3L1 cells at 10 uM after 24 to 48 hrs by immunoblotting; format: functional, cell-based
3T3-L1 [6] = assay: Stimulation of lipolysis in mouse 3T3L1 cells after 48 hrs by glycerol release assay in presence of JNK inhibitor SP600125; format: functional, cell-based
3T3-L1 [7] = assay: Stimulation of lipolysis in mouse 3T3L1 cells after 48 hrs by glycerol release assay in presence of PKA inhibitor H89; format: functional, cell-based
3T3-L1 [8] = assay: Inhibition of mouse 3T3L1 cell differentiation assessed as reduction in EBPalpha gene expression after 2 days by RT-PCR analysis; format: functional, cell-based
3T3-L1 [9] = assay: Reduction of perilipin protein level in mouse 3T3L1 cells at 10 uM after 24 to 48 hrs by immunoblotting; format: functional, cell-based
3T3-L1 [10] = assay: Induction of PKA-mediated HSL phosphorylation at S563 in mouse 3T3L1 cells at 10 uM after 24 to 48 hrs by immunoblotting; format: cell-based
3T3-L1 [11] = assay: Stimulation of lipolysis in mouse 3T3L1 cells after 48 hrs by glycerol release assay in presence of p38 MAPK inhibitor SB203580; format: functional, cell-based
[12] = Reduction of HSL mRNA expression in mouse 3T3L1 cells at 1 to 10 uM after 24 hrs by RT-PCR analysis; format: functional, cell-based; conditions: 3T3-L1
3T3-L1 [13] = assay: Induction of PKA-mediated HSL phosphorylation at S660 in mouse 3T3L1 cells at 10 uM after 24 to 48 hrs by immunoblotting; format: cell-based
3T3-L1 [14] = assay: Induction of AMPK-mediated HSL phosphorylation at S565 in mouse 3T3L1 cells at 10 uM after 24 to 48 hrs by immunoblotting; format: cell-based
3T3-L1 [15] = assay: Stimulation of lipolysis in mouse 3T3L1 cells after 48 hrs by glycerol release assay; format: functional, cell-based
[16] = Reduction of perilipin mRNA expression in mouse 3T3L1 cells after 24 hrs by RT-PCR analysis; format: functional, cell-based; conditions: 3T3-L1
3T3-L1 [17] = assay: Inhibition of mouse 3T3L1 cell differentiation assessed as reduction in PPARgamma gene expression after 2 days by RT-PCR analysis; format: functional, cell-based
[18] = Reduction of […] mRNA expression in mouse 3T3L1 cells after 24 hrs by RT-PCR analysis; format: functional, cell-based; conditions: 3T3-L1
3T3-L1 [19] = assay: Inhibition of mouse 3T3L1 cell differentiation assessed as reduction in PPARgamma protein level after 8 days by immunoblotting; format: functional, cell-based
[20] = Cytotoxicity against mouse 3T3L1 cells at 1 to 10 uM after 48 hrs by MTT assay; format: cell-based; conditions: 3t3-l1, 48 h
3T3-L1 [21] = assay: Stimulation of lipolysis in mouse 3T3L1 cells after 48 hrs by glycerol release assay in presence of ERK inhibitor PD98059; format: functional, cell-based
[22] = Reduction of […] mRNA expression in mouse 3T3L1 cells at 1 to 10 uM after 24 hrs by […]; format: functional, cell-based; conditions: 3T3-L1
3T3-L1 [23] = assay: Inhibition of mouse 3T3L1 cell differentiation assessed as reduction in intracellular lipid accumulation after 8 days by Oil Red O staining method; format: functional, cell-based
3T3-L1 [24] = assay: Stimulation of lipolysis in mouse 3T3L1 cells at 0.25 mM after 48 hrs by glycerol release assay; format: functional, cell-based

SMILES | Activity (3T3-L1 [1]) | Activity (3T3-L1 [2]) | Activity (3T3-L1 [3]) | inhibition (3T3-L1 [4]) | Activity (3T3-L1 [5]) | Activity (3T3-L1 [6]) | Activity (3T3-L1 [7]) | inhibition (3T3-L1 [8]) | Activity (3T3-L1 [9]) | Activity (3T3-L1 [10]) | Activity (3T3-L1 [11]) | Activity [12] | Activity (3T3-L1 [13]) | Activity (3T3-L1 [14]) | Activity (3T3-L1 [15]) | Activity [16] | inhibition (3T3-L1 [17]) | Activity [18] | inhibition (3T3-L1 [19]) | Activity [20] | also measured
CC(C)NCC(O)c1ccc(O)c(O)c1 (stereo not drawn) | Active | – | – | – | – | – | – | – | – | – | – | – | – | – | – | – | – | – | – | – | –
C=C1C(=O)C2=C(C[C@](C)(CO)C2)[C@](C)(O)C12CC2 | Active | Active | Dose-dependent effect | Dose-dependent effect | Active | Active | inactive | Active | Active | Active | Active | Active | Active | inactive | Dose-dependent effect | Dose-dependent effect | Active | Dose-dependent effect | Dose-dependent effect | Non-toxic | Activity (3T3-L1 [21]): inactive; Activity [22]: Active; inhibition (3T3-L1 [23]): Dose-dependent effect
CC(C)Cn1c(=O)n(C)c(=O)c2nc[nH]c21 | – | – | – | – | – | – | – | – | – | – | – | – | – | – | – | – | – | – | – | – | Activity (3T3-L1 [24]): Active
C=C1C(=O)C2=C(C[C@@](C)(CO)C2)[C@](C)(O)C12CC2 | Active | Active | Dose-dependent effect | Dose-dependent effect | Active | Active | inactive | Active | Active | Active | Active | Active | Active | inactive | Dose-dependent effect | Dose-dependent effect | Active | Dose-dependent effect | Dose-dependent effect | Non-toxic | Activity (3T3-L1 [21]): inactive; Activity [22]: Active; inhibition (3T3-L1 [23]): Dose-dependent effect

Source: ChEMBL document CHEMBL3232923, “Illudins C2 and C3 stimulate lipolysis in 3T3-L1 adipocytes and suppress adipogenesis in 3T3-L1 preadipocytes” (J Nat Prod, 2014)
